Data taken from article PMC7352952, “Peptides Derived from (RRWQWRMKKLG)2-K-Ahx Induce Selective Cellular Death in Breast Cancer Cell Lines through Apoptotic Pathway” (International Journal of Molecular Sciences, 2020).
In brackets after ≈: the same amount, converted by molar mass. Where two headings read alike, the source gives them in different places. Each block holds one compound with its values, some of them ahead of it. Bridge positions count the residues as written; N and C are the ends. Square brackets hold non-standard residues; d marks the D form. Peptide text beside a SMILES is read from it. I, II: the chains in the order shown. Ahx = NCCCCCC(=O)O

Legend:
Stability during storage = format: physicochemical; conditions: Met residue prone to oxidation; Supplementary Figure S1
HTB-132 cell line [1] = assay: MTT viability test, HTB-132 cells; format: cell-based, human; conditions: 24 h, concentration range 1–100 µg/mL
[2] = tested on: MDA-MB 231 breast cancer cells; conditions: peptide 100 µg/mL (30 µM); earlier work, ref not given; cited from earlier work
Source text: (§1) Breast cancer is the most common cancer type diagnosed worldwide. There are 2.1 million cases annually, and 627,000 deaths of women due to this disease were reported in 2018 [5]. […] However, when this motif was modified or included in longer sequences, the cytotoxic effect against human cancer cell lines increased. In ...

[3] = tested on: MDA-MB 468 breast cancer cells; conditions: peptide 100 µg/mL (30 µM); earlier work, ref not given; cited from earlier work
Source text: as §1

MCF-7 cell line = assay: MTT viability test, MCF-7 cells; format: cell-based, human
Experimental: (§2) For all cell lines, the medium used was Dulbecco’s Modified Eagle’s Medium (DMEM)/Nutrient Mixture F-12 Ham. For the HTB-132, MCF-7, and MCF-12A lines, the medium was supplemented with 10% fetal bovine serum (SFB), and 1.5 g/L NaHCO3 and NaOH were added up to pH 7.4, amphotericin (200 μg/mL), and 1% penicillin and streptomycin. For the primary culture cells of bovine mammary epithelium and fibroblasts, in addition to the above, hydrocortisone (250 μg/mL) was added. All media were filtered through a 0.22 μm membrane.
(§3) Briefly, the cells were seeded with a complete medium in 96-well plates at a rate of 10,000 cells and 100 µL per well, and adhesion to the plates was allowed for 24 h. Subsequently, the complete medium was removed and an incomplete medium was added for synchronization for another 24 h. The cells were then incubated at 37 °C for 2, 24, or 48 h with 100 μL of peptide at the concentrations to be evaluated (200, 100, 50, 25, 12.5, 6.25 and 3.1 μg/mL). Next, the peptide was removed from the box, and 100 µL of incomplete medium with 10% 3-4,5-dimethylthiazol-2-yl-2,5-diphenyltetrazole (MTT) bromide was added and incubated for 4 h. The medium was replaced with 100 μL of isopropanol (IPA), and after 30 min of incubation at 37 °C, the absorbance was measured at 575 nm. As a negative control, an incomplete culture medium with 10% MTT was used, and as a positive control, cells without MTT treatment were used.

HTB-132 cell line [4] = assay: MTT viability test, HTB-132 cells; format: cell-based, human; conditions: for IC50, cytotoxic effect, HTB-132: 24 h at 37 °C, mean of n = 3
Experimental: as §2, §3

MCF-7 cells [5] = assay: Cell morphology and size by inverted microscope; format: cell-based, human; conditions: MCF-7, 90 min of treatment, 37 °C; from 100.27 μm before; average of 100 measurements; Figure 3: 100 µg/mL
Experimental: Cell morphology was monitored before and after treatment with ^26[L] or ^26[F] at different times, using an inverted microscope coupled to an AxioCam ICc1 camera (Figure 3). The untreated cells had normal morphologic characteristics as polygonal, flattened, and elongated cells with long and defined axons (data not shown). After 5 min of treatment with the peptide, most cells retained their morphology; however, some began to appear rounded and shrunken. After 90 min, the cells treated with the peptide (^26[L] or ^26[F]) took on a rounded shape, and shrinkage was observed, going from an average size of 100.27 μm to 39.38 µm. […] At 24 h of treatment, the appearance of small vacuoles was observed, presumably associated with late apoptosis events. Finally, it was observed that the effect of the peptide was sustained up to 48 h since at that time no recovery of cell morphology was observed.
Figure 3 Micrography of MCF-7 cells treated with peptide ^26[F] at 100 µg/mL. The cells were incubated in the absence (A) or the presence of the peptide at (B) 5 min, (C) 90 min, (D) 240 min, (E) 24 h, and (F) 48 h at 37 °C. The cell size was determined as an average of 100 measurements, using an AxioCam ICc1 camera.

MCF-7 cells [6] = assay: Integrity of the cytoplasmic membrane, SYTO9/PI flow cytometry; format: cell-based, human; conditions: MCF-7, peptide 15 µM, PI and SYTO9
Experimental: The cells with complete medium were seeded and synchronized in boxes of 24 wells in a concentration of 4 × 10^4 cells/well in a volume of 400 μL/well, and adhesion to the plate was allowed for 24 h [52]. Then the complete medium was replaced by incomplete medium for synchronization of the cells for an additional 24 h. […] The cells were harvested by adding 200 μL of trypsin and incubating for 10 min. The trypsin was quenched with 200 µL of complete medium, and the cells were centrifuged at 2500 rpm for 10 min. The supernatant was discarded, and the pellet was washed with 100 µL PBS and centrifuged under the same conditions previously described. The supernatant was discarded, and the cells were stained with 30 μL of a solution from the LIVE/DEAD® FungaLigthTM commercial kit (Invitrogen) containing the mixture of fluorochromes (0.5 μL of SYTO9 and/or 0.5 μL of propidium iodide (PI) with 99 μL of PBS). Subsequently, the cells were incubated at room temperature and in the dark for 20 min and centrifuged, and the supernatant was discarded. The pellet was resuspended in 100 μL of PBS and analyzed via flow cytometry in a BD Accuri C6 device. The events were recorded using the green channel (FL1) on the abscissa axis and the red (FL3) on the ordinate axis. Negative control: untreated cells marked with both fluorophores; positive control: cells treated with actinomycin 10 μg/mL for 24 h [52]. […]

MCF-7 cells [7] = assay: Type of cell death (apoptosis/necrosis), Annexin V/PI flow cytometry; format: cell-based, human; conditions: MCF-7, peptide 15 µM, 24 h, annexin V and PI
Experimental: The cells were seeded and synchronized in boxes of 24 wells at a concentration of 4 × 10^4 cells/well in 400 μL/well, adhesion and synchronization were allowed in the same way as in Section 4.8, and the culture medium was replaced with medium containing the peptide to be evaluated and incubated for 2 or 24 h. Subsequently, the cells were harvested with trypsin, centrifuged at 2500 rpm for 10 min, washed with PBS, and resuspended in 10 μL of staining buffer with the fluorochromes (10 mM Hepes pH 7.4; 10 mM NaCl and 2.5 mM CaCl2 containing 1 μL of PI fluorochrome and 1 μL of Annexin V). Cells with the fluorochromes were incubated at 37 °C in the dark for 15 min and resuspended in 80 μL of staining buffer without fluorochromes for analysis via flow cytometry. The positive control of necrosis was: cells treated with EDTA 15 mM for 60 min, and apoptotic: cells treated with Actinomycin at 10 μM for 24 h. Negative control: cells without treatment; compensation controls: (i) cells stained only with Annexin, and (ii) only with PI; population control: unstained and untreated cells.

[8] = tested on: breast cancer cell lines HTB-132 and MCF-7; format: cell-based, human; conditions: 24 h
Experimental: as §3

MCF-7 cells [9] = assay: Mitochondrial membrane depolarization, JC-1 flow cytometry; format: cell-based, human; conditions: MCF-7, peptide 15 µM
Experimental: For this test, the MitoProbeTM JC-1 Assay kit (M34152 from Termofisher, Walthan, MA, USA) was used according to the supplier’s recommendations. The cells seeded and synchronized in a box of 24 wells (4 × 10^4 cells/well) were incubated with 400 μL of peptide to be evaluated at 2 and 24 h. The cells were then trypsinized and collected by centrifugation at 400 g × 5 min. The resulting pellet was stained by adding 100 μL of JC1 “working solution” (1:100 JCI solution reconstituted in DMSO: buffer assay 1×) and incubated at 37 °C for 20 min. Subsequently, the cells were washed twice with 1× buffer assay and finally resuspended in 100 μL of 1× buffer assay for reading on the cytometer. Negative control: cells without treatment; positive control: cells treated with 10 μM actinomycin for 24 h.

MCF-12 cell line = format: cell-based, human
Experimental: as §2, §3

[10] = MTT, 24 h at 37 °C, three independent experiments with n = 4 each

Compound: CSCC[C@H](NC(=O)[C@H](CCCNC(=N)N)NC(=O)[C@H](Cc1c[nH]c2ccccc12)NC(=O)[C@H](CCC(N)=O)NC(=O)[C@H](Cc1c[nH]c2ccccc12)NC(=O)[C@H](CCCNC(=N)N)NC(=O)[C@@H](N)CCCNC(=N)N)C(=O)N[C@@H](CCCCN)C(=O)N[C@@H](CCCCN)C(=O)N[C@@H](CC(C)C)C(=O)NCC(=O)NCCCC[C@H](NC(=O)CNC(=O)[C@H](CC(C)C)NC(=O)[C@H](CCCCN)NC(=O)[C@H](CCCCN)NC(=O)[C@H](CCSC)NC(=O)[C@H](CCCNC(=N)N)NC(=O)[C@H](Cc1c[nH]c2ccccc12)NC(=O)[C@H](CCC(N)=O)NC(=O)[C@H](Cc1c[nH]c2ccccc12)NC(=O)[C@H](CCCNC(=N)N)NC(=O)[C@@H](N)CCCNC(=N)N)C(=O)NCCCCCC(N)=O [^26[M], (RRWQWRMKKLG)2-K-Ahx] (I: H-RRWQWRMKKLGK[Ahx]-NH2 / II: H-RRWQWRMKKLG; amide I:12-II:C)
stability during storage (in words) (Stability during storage): stability problems
cytotoxic effect at the maximum evaluated concentration, HTB-132 (HTB-132 cell line [1]): ~55%
cellular viability, MDA-MB 231 [2]: ~ 0%
cytotoxic effect, MDA-MB 231 [2]: ~100%
cellular viability, MDA-MB 468 [3]: ~ 0%
cytotoxic effect, MDA-MB 468 [3]: ~100%
cytotoxic effect against MCF-7 (in words) (MCF-7 cell line; MTT, 24 h): does not exhibit a significant cytotoxic effect
IC50, cytotoxic effect, MCF-7 (MCF-7 cell line; [10]): > 200 µg/mL
IC50 (MCF-7 cell line; MTT, 24 h at 37 °C, three independent experiments with n = 4 each, read-out: IC50, cytotoxic effect, MCF-7): > 60 µM
IC50, cytotoxic effect, HTB-132 (HTB-132 cell line [4]; MTT): 96 µg/mL (≈ 29 µM)

IC50 [8]: 6 to 13 µM
IC50 (MCF-12 cell line; 24 h): 21 µM
Compound: CC(C)C[C@H](NC(=O)[C@H](CCCCN)NC(=O)[C@H](CCCCN)NC(=O)[C@H](Cc1ccccc1)NC(=O)[C@H](CCCNC(=N)N)NC(=O)[C@H](Cc1c[nH]c2ccccc12)NC(=O)[C@H](CCC(N)=O)NC(=O)[C@H](Cc1c[nH]c2ccccc12)NC(=O)[C@H](CCCNC(=N)N)NC(=O)[C@@H](N)CCCNC(=N)N)C(=O)NCC(=O)NCCCC[C@H](NC(=O)CNC(=O)[C@H](CC(C)C)NC(=O)[C@H](CCCCN)NC(=O)[C@H](CCCCN)NC(=O)[C@H](Cc1ccccc1)NC(=O)[C@H](CCCNC(=N)N)NC(=O)[C@H](Cc1c[nH]c2ccccc12)NC(=O)[C@H](CCC(N)=O)NC(=O)[C@H](Cc1c[nH]c2ccccc12)NC(=O)[C@H](CCCNC(=N)N)NC(=O)[C@@H](N)CCCNC(=N)N)C(=O)NCCCCCC(N)=O [^26[F], (RRWQWRFKKLG)2-K-Ahx] (I: H-RRWQWRFKKLGK[Ahx]-NH2 / II: H-RRWQWRFKKLG; amide I:12-II:C)
average cell size after treatment (MCF-7 cells [5]): 39.38 µm
cytotoxic effect against MCF-7 compared with ^26[M] (in words) (MCF-7 cell line; MTT, 24 h): greater cytotoxic effect against MCF-7 cells than the peptide
IC50, cytotoxic effect, MCF-7 (MCF-7 cell line; [10]): 19 µg/mL (≈ 5.68 µM)
maximum cytotoxic effect, MCF-7 (MCF-7 cell line; MTT, peptide 200 µg/mL, regardless of treatment time (2, 24, 48 h)): approximately 90%
IC50 (MCF-7 cell line; human, 24 h, pH 7.4): 6 µM
cell population with cytoplasmic membrane affected (MCF-7 cells [6]): 10%
cell population dyed with both fluorophores (apoptotic process) (MCF-7 cells [7]): 54%
cell population dyed with only PI (necrotic process) (MCF-7 cells [7]): 21%
population with depolarization of the mitochondrial membrane (MCF-7 cells [9]): 19%
cytotoxic effect against HTB-132 compared with ^26[M] (in words) (HTB-132 cell line [4]; MTT, 24 h): greater cytotoxic effect against cancer cells than the original peptide
IC50, cytotoxic effect, HTB-132 (HTB-132 cell line [4]; MTT): 43 µg/mL (≈ 12.9 µM)
IC50 (HTB-132 cell line [4]; human, 24 h, pH 7.4): 13 µM
cytotoxic effect against MCF-12 compared with HTB-132 and MCF-7 (in words) (MCF-12 cell line): lower cytotoxic effect against MCF-12 cells than against breast cancer cell lines
IC50, non-tumorigenic cell line MCF-12 (MCF-12 cell line; MTT, 24 h at 37 °C): 70 µg/mL (≈ 20.9 µM)
